3 molecules from ChEMBL document CHEMBL5143555, “Potentiating the intracellular killing of Staphylococcus aureus by dihydroquinazoline analogues as NorA efflux pump inhibitor” (Bioorg Med Chem, 2022) can be followed below.

Converted amounts (≈) assume the structure as drawn. The source made the active and inactive calls. No cut-off for these calls is given here.

The subject of data set [1] is Staphylococcus aureus. Description: Antibacterial activity against Staphylococcus aureus 1199B measured after 24 hrs by Muller Hinton broth based MTT assay. In kind it is functional. In general terms: Tetrazolium dyes change colour on reduction, which living cells bring about.
In data set [2] the test system is Staphylococcus aureus. Description: Antibacterial activity against Staphylococcus aureus 1199 measured after 24 hrs by Muller Hinton broth based MTT assay. It is filed as functional.
Data set [3] relates to Staphylococcus aureus. Description: Antibacterial activity against Staphylococcus aureus K1758 measured after 24 hrs by Muller Hinton broth based MTT assay. It is filed as functional.
The target in data set [4] is T1, Quinolone resistance protein NorA (Staphylococcus aureus) (UniProt P0A0J7).
T1 sequence (whole entry): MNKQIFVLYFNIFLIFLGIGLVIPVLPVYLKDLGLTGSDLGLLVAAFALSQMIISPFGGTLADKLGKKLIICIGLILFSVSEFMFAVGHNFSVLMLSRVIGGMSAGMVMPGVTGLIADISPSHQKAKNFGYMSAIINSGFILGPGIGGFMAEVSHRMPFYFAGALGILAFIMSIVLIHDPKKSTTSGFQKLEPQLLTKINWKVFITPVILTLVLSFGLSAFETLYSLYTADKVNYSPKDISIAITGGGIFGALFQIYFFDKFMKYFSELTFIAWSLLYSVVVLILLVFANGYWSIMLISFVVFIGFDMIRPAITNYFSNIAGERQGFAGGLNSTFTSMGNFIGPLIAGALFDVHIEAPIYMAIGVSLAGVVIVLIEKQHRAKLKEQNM
Description: Inhibition of NorA in Staphylococcus aureus 1199B assessed as potentiation of norfloxacin-induced antibacterial activity by measuring Norfloxacin MIC at sub MIC.

Data set [5] concerns the target T1, Quinolone resistance protein NorA (Staphylococcus aureus). Description: Inhibition of NorA in Staphylococcus aureus 1199B assessed as potentiation of norfloxacin-induced antibacterial activity by measuring Norfloxacin MIC at sub MIC relative to norfloxacin MIC alone.
For data set [6] the target is unchanged. Description: Inhibition of NorA in Staphylococcus aureus 1199B assessed as potentiation of norfloxacin-induced antibacterial activity by measuring fractional inhibitory concentration.
For data set [7] the target is unchanged. Description: Inhibition of NorA in Staphylococcus aureus 1199B assessed as potentiation of ethidium bromide-induced antibacterial activity by measuring ethidium bromide MIC at sub MIC.
Data set [8] shares this target. Description: Inhibition of NorA in Staphylococcus aureus 1199B assessed as potentiation of ethidium bromide-induced antibacterial activity by measuring ethidium bromide MIC at sub MIC relative to ethidium bromide MIC alone.
Data set [9] has the same target. Description: Inhibition of NorA in Staphylococcus aureus 1199B assessed as potentiation of ethidium bromide-induced antibacterial activity by measuring fractional inhibitory concentration.
Data set [10] shares this target. Description: Inhibition of NorA in Staphylococcus aureus 1199B assessed as potentiation of 3.1 ug/mL norfloxacin-induced bactericidal activity by measuring log reduction in bacterial count at 7.8 ug/mL measured after 24 hrs by time-kill kinetics assay. To be noted: dose 7.8 µg/ml.
Data set [11] has the same target. Description: Inhibition of NorA in Staphylococcus aureus 1199B assessed as potentiation of ethidium bromide-induced bactericidal activity at 7.8 ug/ml measured after 24 hrs by time-kill kinetics assay. Conditions: dose 7.8 µg/ml.
The nature of data set [12]: Cytotoxicity against kidney epithelial cells (unknown origin) assessed as cell viability at 50 ug/mL measured after 24 hrs by alamar blue assay relative to control. In kind it is toxicity, cell-based, Fetal kidney cell. To be noted: at 50 µg/mL, read-out: Activity.
Data set [13] addresses T1, Quinolone resistance protein NorA (Staphylococcus aureus). Description: Inhibition of NorA in Staphylococcus aureus 1199B assessed as accumulation of norfloxacin at 3.9 ug/ml measured at 5 mins interval for 40 mins by fluorescence spectrophotometry. Conditions: dose 3.9 µg/ml.
The target is the same in data set [14]. Description: Inhibition of NorA in Staphylococcus aureus 1199B assessed as accumulation of ethidium bromide at 3.9 ug/ml by measuring fluorescence intensity measured at 5 mins interval for 40 mins by fluorescence spectrophotometry. Conditions: dose 3.9 µg/ml.
For data set [15] the target is unchanged. Description: Inhibition of NorA in Staphylococcus aureus 1199B assessed as accumulation of norfloxacin at 3.9 ug/ml by measuring fluorescence intensity measured at 5 mins interval for 40 mins by fluorescence spectrophotometry. Conditions: dose 3.9 µg/ml.
Data set [16] shares this target. Description: Inhibition of NorA in Staphylococcus aureus 1199B assessed as potentiation of 3.1 ug/mL norfloxacin-induced bactericidal activity by measuring log reduction in bacterial count at 7.8 ug/mL measured after 8 hrs by time-kill kinetics assay. Conditions: dose 7.8 µg/ml.
The target is the same in data set [17]. Description: Inhibition of NorA in Staphylococcus aureus 1199B assessed as potentiation of ethidium bromide-induced bactericidal activity at 62.5 ug/ml measured within 8 hrs by time-kill kinetics assay. To be noted: dose 62.5 µg/ml.
Data set [18] has the same target. Description: Inhibition of NorA in Staphylococcus aureus 1199B assessed as potentiation of norfloxacin-induced morphological changes by measuring appearance of undeveloped cells sticking together at sub MIC by field emission scanning electron microscopy.
For data set [19], the system named is Staphylococcus aureus. Description: Down regulation of NorA gene expression in Staphylococcus aureus 1199B at 3.9 ug/ml measured after 2 hrs by qRT-PCR analysis. It is filed as functional. Conditions: dose 3.9 µg/ml. Background: Quantitative PCR measures a nucleic acid by following its amplification.
In data set [20] the test system is Staphylococcus aureus. Description: Down regulation of NorA gene expression in Staphylococcus aureus 1199B at 3.1 ug/ml measured after 2 hrs by qRT-PCR analysis relative to control. In kind it is functional. Conditions: dose 3.1 µg/ml.
The test system of data set [21] is Staphylococcus aureus. Description: Down regulation of NorA gene expression in Staphylococcus aureus 1199B at 3.1 ug/ml measured after 2 hrs in presence of norfloxacin by qRT-PCR analysis relative to norfloxacin. In kind it is functional. Conditions: dose 3.1 µg/ml.
In data set [22] the target is T1, Quinolone resistance protein NorA (Staphylococcus aureus). Description: Inhibition of NorA in Staphylococcus aureus 1199B infected human THP-1 cells assessed as potentiation of norfloxacin-induced bactericidal activity by measuring reduction in bacterial count at modulatory concentration measured after 24 hrs. In kind it is cell-based.
For data set [23] the target is unchanged. Description: Inhibition of NorA in Staphylococcus aureus 1199B infected human THP-1 cells assessed as potentiation of norfloxacin-induced bactericidal activity by measuring reduction in bacterial count at modulatory concentration measured after 24 hrs relative to control. In kind it is cell-based.
The target is the same in data set [24]. Description: Inhibition of NorA in Staphylococcus aureus 1199B infected human THP-1 cells assessed as potentiation of norfloxacin-induced bactericidal activity by measuring reduction in intracellular invasion at modulatory concentration measured after 24 hrs. In kind it is cell-based.
Data set [25] shares this target. Description: Inhibition of NorA in Staphylococcus aureus 1199B infected human THP-1 cells assessed as potentiation of norfloxacin-induced bactericidal activity by measuring reduction in intracellular proliferation at modulatory concentration measured after 24 hrs. It is filed as cell-based.
Data set [26] has the same target. Description: Inhibition of NorA in Staphylococcus aureus 1199B infected human THP-1 cells assessed as potentiation of 6.2 ug/ml norfloxacin-induced bactericidal activity by measuring log reduction in bacterial count at 15.6 ug/ml measured after 24 hrs relative to control. Conditions: dose 15.6 µg/ml. In kind it is cell-based.
The target is the same in data set [27]. Description: Inhibition of NorA in Staphylococcus aureus 1199B infected human THP-1 cells assessed as potentiation of norfloxacin-induced bactericidal activity by measuring log reduction in bacterial count measured after 24 hrs relative to vancomycin. It is filed as cell-based.
Data set [28] has the same target. Description: Inhibition of NorA in Staphylococcus aureus 1199B assessed as potentiation of norfloxacin-induced morphological changes by measuring appearance of plicated and with cracked surface at sub MIC by field emission scanning electron microscopy.
The test system of data set [29] is Staphylococcus aureus. Description: Up regulation of NorA gene expression in Staphylococcus aureus 1199B at 3.9 ug/ml measured after 2 hrs by qRT-PCR analysis relative to control. Conditions: dose 3.9 µg/ml. In kind it is functional.
Data set [30] relates to Staphylococcus aureus. Description: Up regulation of NorA gene expression in Staphylococcus aureus 1199B at 3.9 ug/ml measured after 2 hrs in presence of norfloxacin by qRT-PCR analysis relative to control. It is filed as functional. Conditions: dose 3.9 µg/ml.
The target in data set [31] is T1, Quinolone resistance protein NorA (Staphylococcus aureus). Description: Inhibition of NorA in Staphylococcus aureus 1199B infected human THP-1 cells assessed as potentiation of 3.1 ug/ml norfloxacin-induced bactericidal activity by measuring log reduction in bacterial count at 15.6 ug/ml measured after 24 hrs relative to control. Conditions: dose 15.6 µg/ml. It is filed as cell-based.

As for `COc1ccc(C2N=C(c3ccccc3)c3ccccc3N2)cc1OC` (stereo unspecified), the MIC was determined as 500 µg/mL (≈ 1450 µM) in data set [1]; 125 µg/mL (≈ 363 µM) in data set [2]; 250 µg/mL (≈ 726 µM) in [3]; 3.1 µg/mL in data set [4]; 6.2 µg/mL in [7]. Moreover, the fold change (FC) turned out to be 16 in data set [5] and 8 in data set [8]. The fractional inhibitory concentration index (FICI) in [6] was determined as 0.078; in data set [9], 0.141. Moreover, the Activity in data set [10] is greater than 3 log10CFU/ml. Also, the inhibition result in [11] and in data set [13] was “Active” in each case. In addition, the viability at 24 h, 50 ug/mL in [12] came out at 83.7%. In addition, in data set [14], the Flu intensity came out at 86.

On to `CN1c2ccc(Cl)cc2C(c2ccccc2)=NC1c1ccc(Br)cc1` (stereo unspecified), for which the Flu intensity amounted to 23600 in [15] and 70.6 in [14]. Also, the MIC worked out at 500 µg/mL (≈ 1210 µM) in data set [1]; 125 µg/mL (≈ 304 µM) in data set [2]; 250 µg/mL (≈ 607 µM) in [3]; 6.2 µg/mL in data set [4]; 3.1 µg/mL in data set [7]. The fold change (FC) in [5] amounted to 8; in data set [8], 16; in [20] it was 8; in data set [21], 9; in data set [23] it was 4. The results for the fractional inhibitory concentration index (FICI) in [6] and in [9] were 0.141 and 0.187, respectively. Moreover, the Activity in data set [16] was greater than 3 log10CFU/ml; in [22] it was 4.47 log10CFU/ml. Further, the inhibition entry in data set [17], in data set [18], in data set [24] and in [25] was “Active” in each case. Moreover, the viability at 24 h, 50 ug/mL in [12] is 86.6%. Further, in [19], the outcome was Active. Further, the figures for the FC in data set [26] and in data set [27] were 5 and 3, respectively.

As for `Brc1ccc(C2=NC(c3ccc(Br)cc3)Nc3ccccc32)cc1` (stereo unspecified), the Flu intensity was found to be 13000 in [15] and 127 in [14]. For the same molecule, the MIC in data set [1] came out at 500 µg/mL (≈ 1130 µM); in [2] it was 125 µg/mL (≈ 283 µM); in data set [3], 15.6 µg/mL (≈ 35.3 µM); in [4] it was 3.1 µg/mL; in [7], 12.5 µg/mL. In addition, the fold change (FC) in [5] came to 16; in data set [8], 4; in data set [29], 3; in [30], 3; in data set [23], 4. Also, the fractional inhibitory concentration index (FICI) came to 0.078 in data set [6] and 0.266 in data set [9]. Moreover, the Activity in data set [16] was greater than 3 log10CFU/ml; in [22], 4.13 log10CFU/ml. Further, the inhibition entry in [11], in data set [28], in [24] and in data set [25] was “Active” throughout. Moreover, the viability at 24 h, 50 ug/mL in data set [12] stood at 93.6%. The results for the FC in data set [31] and in [27] were 5 and 3, respectively.
